The structures appear in SMILES notation.

In this test the target is T1, CETP (Homo sapiens, UniProt P11597).
T1 construct: from tissue; host or cells: plasma from a healthy volunteer (diluted to 0.64%)
T1 sequence (P11597 18-493): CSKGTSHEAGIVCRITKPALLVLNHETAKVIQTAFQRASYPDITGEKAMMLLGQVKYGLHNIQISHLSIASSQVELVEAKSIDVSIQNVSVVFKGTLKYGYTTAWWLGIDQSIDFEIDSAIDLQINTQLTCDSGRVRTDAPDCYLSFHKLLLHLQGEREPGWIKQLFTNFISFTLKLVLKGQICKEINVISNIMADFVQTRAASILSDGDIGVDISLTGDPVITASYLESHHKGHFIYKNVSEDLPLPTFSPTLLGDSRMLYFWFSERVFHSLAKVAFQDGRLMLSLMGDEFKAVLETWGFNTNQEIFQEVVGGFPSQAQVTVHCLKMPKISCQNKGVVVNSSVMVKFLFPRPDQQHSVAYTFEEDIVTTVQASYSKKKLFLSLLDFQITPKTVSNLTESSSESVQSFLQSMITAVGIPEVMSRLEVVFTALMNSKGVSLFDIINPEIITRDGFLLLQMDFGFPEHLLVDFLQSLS
Put plainly: Inhibitory activity against CETP in vitro (fluorescent BODIPY-CE transfer from donor to acceptor microemulsion in diluted human plasma). Type of test: biochemical. Conditions: plasma from a healthy volunteer diluted to 0.64%; preincubation with test solution 37° C. 24 hours; incubation with donor/acceptor microemulsion 37° C. 3 hours; fluorescence Ex.550 nm/Em.600 nm. On the procedure: The inhibitory activity of the compounds of the present invention against CETP was tested in this experiment.
A solution of 1-Palmitoyl-2-oleoyl-sn-glycero-3-phosphocholine (3.5 mg), cholesteryl oleate (3 mg) and triolein (0.7 mg) in chloroform was mixed and lipid was air-dried under nitrogen gas to remove solvent. Dioxane (0.25 ml) was then added and the mixture was stirred for dissolution. The resultant lipid solution (0.2 ml) was slowly injected under the surface of Tris-saline-EDTA(TSE) buffer solution [10 mM Tris/HCl (pH 7.4), 0.15 M NaCl, 2 mM EDTA] (10 ml) with Hamilton syringe, while sonicating in ice-bath. After 1-hour-sonication in ice-bath, the solution was stored at 4° C.
A solution of egg PC (phosphatidylcholine) (0.33 mg) and BODIPY-CE (0.62 mg) in chloroform was mixed. After removing solvent by air-drying lipid under nitrogen gas, TSE buffer solution (3 ml) was added and the solution was sonicated in ice-bath. This solution was filtered to sterilize through 0.22 μm filter and stored at 4° C.
A test solution was prepared using dimethyl sulfoxide as a solvent. Plasma from a healthy volunteer was diluted to 0.64% with TSE buffer, and to the resultant plasma solution (187 μl) was added a test solution (3 μl) or the solvent alone followed by incubation at 37° C. for 24 hours. After addition of TSE buffer solution (10 μl) containing 5% donor microemulsion and 5% acceptor microemulsion, the mixture was incubated at 37° C. for 3 hours. Before and after the incubation, the fluorescence intensity was measured at Ex.550 nm/Em.600 nm. CETP activity was defined as the difference between the measurements obtained before incubation and after incubation. The decreasing rate of the difference in the sample was defined as the inhibition rate of CETP activity. IC50 for each sample was calculated from the inhibition rate of CETP activity.
Turning to `CCOC(=O)N1c2ccc(OC)nc2[C@@H](N(Cc2cc(C(F)(F)F)cc(C(F)(F)F)c2)c2ncc(N3CCOCC3)cn2)C[C@H]1CC` [Example 22], the IC50 came out at 0.39 nM. The figure for `CCOC(=O)N1c2ccc(OC)nc2[C@@H](N(Cc2cc(C(F)(F)F)cc(C(F)(F)F)c2)c2ncc(OCCS(C)(=O)=O)cn2)C[C@H]1CC` [Example 116] is 0.11 nM. `CCOC(=O)N1c2ccc(OC)nc2[C@@H](N(Cc2cc(C(F)(F)F)cc(C(F)(F)F)c2)c2ncc(OCCC(=O)O)cn2)C[C@H]1CC` [Example 269, (2R,4S)-4-{[3,5-bis(trifluoromethyl)benzyl]-[5-(2-carboxyethoxy)pyrimidin-2-yl]}amino-2-ethyl-6-methoxy-3,4-dihydro-2H-[1,5]naphthyridine-1-carboxylic acid ethyl ester] registered an IC50 of 1.9 nM.

For the compound `CCOC(=O)N1c2ccc(N(C)C)nc2[C@@H](N(Cc2cc(C(F)(F)F)cc(C(F)(F)F)c2)c2ncc(N3CCN(C(C)=O)CC3)cn2)C[C@H]1CC` [Example 337, (2R,4S)-4-{[5-(4-acetylpiperazin-1-yl)pyrimidin-2-yl]-[3,5-bis(trifluoromethyl)-benzyl]}amino-6-dimethylamino-2-ethyl-3,4-dihydro-2H-[1,5]naphthyridine-1-carboxylic acid ethyl ester], the concentration for half-maximal inhibition (IC50) amounted to 0.4 nM.

Consider `CCC1CC(N(Cc2cc(C(F)(F)F)cc(C(F)(F)F)c2)c2ncc(CCC(=O)O)cn2)c2nc(OC)ccc2N1C(=O)OCC(F)(F)F` (stereo not shown) [Example 356], for which inhibition was half-maximal at 0.98 nM (IC50). The figure for `CCOC(=O)N1c2ccc(OC)nc2[C@@H](N(Cc2cc(C(F)(F)F)cc(C(F)(F)F)c2)c2ccc(N3CCC(C(=O)O)CC3)cn2)C[C@H]1CC` [Example 383] is 4.6 nM; for `CC[C@@H]1C[C@H](N(Cc2cc(C(F)(F)F)cc(C(F)(F)F)c2)c2ncc(N3CCOCC3)cn2)c2nc(OC)ccc2N1C(=O)OCC(C)(C)C(=O)O` [Example 409] it is 0.83 nM.

The values are drawn from patent US7781443B2, “Tetrahydronaphthyridine derivatives and a process for preparing the same” (Mitsubishi Tanabe Pharma Corporation, priority 2004, dated 2010).
